Reference: US20010056084A1, “MGluR5 antagonists for the treatment of pain and anxiety” (priority 1998, published 2001)

What was measured:
[1] = system: rat; details: intrathecally administered; cited from earlier work
[2] = system: naive rat hind paw; assay: naive rat hind paw test of mechanical hyperalgesia (Randall and Selitto), glutamate receptor agonists; type: in vivo
[3] = system: DHPG-induced hyperalgesia in the rat hind paw; assay: DHPG-induced hyperalgesia in the rat hind paw (Randall and Selitto), co-administration; type: in vivo; details: co-administration with DHPG to the rat hind paw

| Compound | spontaneous nociceptive responses [1] | rank order of potency as hyperalgesic agents [2] | inhibition of DHPG-induced hyperalgesia [3] |
| --- | --- | --- | --- |
| NC(C(=O)O)c1cc(O)cc(O)c1 (centres unmarked) [DHPG, 3,5-dihydroxyphenyiglycine] | induced an increase in spontaneous nocicepfive responses | DHPG>NMDA | – |
| NC1(C(=O)O)CCC2C(C(=O)O)C21 (racemic) [LY 314582, (±)-2-aminobicyclo[3.1.0]hexane-2,6-dicarboxylic acid] | – | (LY 314582)>L-4-phosphono-2-amino-butiric acid (L-AP4) | – |
| Cc1o[nH]c(=O)c1CC(N)C(=O)O (centres unmarked) [AMPA] | – | AMPA>(±)-2-aminobicyclo[3.1.0]hexane-2,6-dicarboxylic acid (LY 314582) | – |
| N[C@@H](CCC(=O)O)C(=O)O [glutamate] | – | glutamate ˜2-chloro-3-hydroxyphenylglycine (CHPG) | – |
| CN[C@H](CC(=O)O)C(=O)O [NMDA] | – | NMDA>AMPA | – |
| N[C@H](C(=O)O)c1ccc(C(=O)O)cc1 [(S)-4C-PG, (S)-4-carboxyphenylglycine] | – | – | limited effect |
| N[C@@H](CCP(=O)(O)O)C(=O)O [L-AP4, L-4-phosphono-2-amino-butiric acid] | – | >L-4-phosphono-2-amino-butiric acid (L-AP4) | – |
